Results taken from patent US20210382051A1, “METHODS AND COMPOUND FOR THE IDENTIFICATION AND TREATMENT OF TUBERCULOSIS” (priority 2020, published 2021).

Columns and labels:
[1] = test system: gamma interferon production in monocyte and/or macrophage primary cell; test: Production of gamma interferon by cells receiving 90I (FIG. 3); type: cell-based; conditions: compared with positive control PMA-lonomycin combination; ten days assay, single time point drug addition
From the text: FIG. 3 illustrates a graph showing production of gamma interferon by cells receiving 90I compared to other drugs, according to an exemplary embodiment of the present general inventive concept.
Referring to FIG. 3, this assay may underscore 90I's absorptions in a monocyte and/or a macrophage primary cell, such that the anti-pathogenic compound may have stability and longer pharmacokinetic half-life in ten days assay with single time point drug addition.
Moreover, activated CD8+ cells are reported to produce high levels of gamma interferon, which may be involved in the anti-TB immune responses, contributing to both control of bacterial spread and concomitant lymphoid follicular lyses. […] This finding may have a far-reaching implication and relevant in that H2K1001 and/or 90I has the potential in the restoration of immune competence, a strong immune modulator. 90I may be as strong as a vaccine because it may modulate the immune cell signal switch from Th2 to Th1 (i.e. a subset of T lymphocytes that express CD4 and are known as T-helper cells, they produce cytokines, specifically Th1-type cytokines). T-helper subset population Th1 and Th2 subset have been identified in animals and humans based on cytokines secreted. […]

HIV strains = test: Activity against HIV strains; type: cell-based; conditions: all HIV strains
From the text: (§1) Referring to FIGS. 2A and 2B, an anti-pathogenic agent and/or the anti-pathogenic compound may be identified as 90I (or 90i). The anti-pathogenic compound may be derived from the herbal extract identified as H2K1001. […] The essence of combination drug therapy, HAART regiments, may be its effectiveness against all HIV-1 strains that is potent enough to bring the viral load down to an undetectable level. This may be achieved by combining an RT and a PR combination synergy to affect multiple modes of action.

reverse transcriptase = reverse transcriptase (Human immunodeficiency virus type 1 group M subtype B, UniProt P04585); test: Effect on reverse transcriptase; type: biochemical, HIV
From the text: as §1

protease (PR) enzyme = protease (PR) enzyme (Human immunodeficiency virus type 1 group M subtype B, UniProt P04585); test: Effect on protease (PR) enzyme; type: biochemical, HIV
From the text: as §1

With `O=C(OCCOCCOC(=O)c1ccccc1)c1ccccc1` [90I, diethylene glycol dibenzoate] the “amount of gamma interferon produced” value [1] was “equivalent to that of the positive control”, the “potency against HIV strains” value (HIV strains) was “highly potent against all HIV strains” and the “effectiveness against reverse transcriptase” value (reverse transcriptase) was “potently effective”. For the same molecule, the “effectiveness against protease (PR) enzyme” value (protease (PR) enzyme) was “potently effective”.
